Reference: ChEMBL document CHEMBL2401728, “An unexpected Dimroth rearrangement leading to annelated thieno[3,2-d][1,2,3]triazolo[1,5-a]pyrimidines with potent antitumor activity” (Eur J Med Chem, 2013)

Experiments:
Assay type in all cases: functional
OVCAR-5 = assay: Cytotoxicity against human OVCAR5 cells assessed as cellular growth at 1 uM after 48 hrs by SRB assay relative to control
UACC-257 [1] = assay: Cytotoxicity against human UACC257 cells assessed as cellular growth at 0.1 uM after 48 hrs by SRB assay relative to control
TK-10 = assay: Cytotoxicity against human TK10 cells assessed as cellular growth at 1 uM after 48 hrs by SRB assay relative to control
UACC-62 = assay: Cytotoxicity against human UACC62 cells after 48 hrs by SRB assay; details: UACC-62, 48 h
T47D = assay: Cytotoxicity against human T47D cells after 48 hrs by SRB assay
786-0 = assay: Cytotoxicity against human 786-0 cells assessed as cellular growth at 10 uM after 48 hrs by SRB assay relative to control
SF-268 [2] = assay: Cytotoxicity against human SF268 cells assessed as cellular growth at 100 uM after 48 hrs by SRB assay relative to control
ACHN = assay: Cytotoxicity against human ACHN cells assessed as cellular growth at 1 uM after 48 hrs by SRB assay relative to control
SK-MEL-28 = assay: Cytotoxicity against human SK-MEL-28 cells assessed as cellular growth at 10 uM after 48 hrs by SRB assay relative to control
[3] = Cytotoxicity against human EKVX cells assessed as cellular growth at 100 uM after 48 hrs by SRB assay relative to control
SF-268 [4] = assay: Cytotoxicity against human SF268 cells assessed as cellular growth at 0.1 uM after 48 hrs by SRB assay relative to control
[5] = Cytotoxicity against human EKVX cells assessed as cellular growth at 0.1 uM after 48 hrs by SRB assay relative to control
NCI-H322M [6] = assay: Cytotoxicity against human NCI-H322M cells assessed as cellular growth at 100 uM after 48 hrs by SRB assay relative to control
NCI-H226 = assay: Cytotoxicity against human NCI-H226 cells assessed as cellular growth at 0.1 uM after 48 hrs by SRB assay relative to control
M14 [7] = assay: Cytotoxicity against human M14 cells assessed as cellular growth at 0.1 uM after 48 hrs by SRB assay relative to control
SK-OV-3 = assay: Cytotoxicity against human SKOV3 cells assessed as cellular growth at 1 uM after 48 hrs by SRB assay relative to control
HCT-116 = assay: Cytotoxicity against human HCT116 cells assessed as cellular growth at 1 uM after 48 hrs by SRB assay relative to control
DU-145 = assay: Cytotoxicity against human DU145 cells assessed as cellular growth at 100 uM after 48 hrs by SRB assay relative to control
HOP-62 = assay: Cytotoxicity against human HOP62 cells assessed as cellular growth at 0.1 uM after 48 hrs by SRB assay relative to control
M14 [8] = assay: Cytotoxicity against human M14 cells after 48 hrs by SRB assay; details: M14, 48 h
MDA-MB-468 = assay: Cytotoxicity against human MDA-MB-468 cells assessed as cellular growth at 1 uM after 48 hrs by SRB assay relative to control
M14 [9] = assay: Cytotoxicity against human M14 cells assessed as cellular growth at 1 uM after 48 hrs by SRB assay relative to control
SN12C [10] = assay: Cytotoxicity against human SN12C cells assessed as cellular growth at 0.01 uM after 48 hrs by SRB assay relative to control
K562 = assay: Cytotoxicity against human K562 cells assessed as cellular growth at 1 uM after 48 hrs by SRB assay relative to control
[11] = Cytotoxicity against human EKVX cells assessed as cellular growth at 1 uM after 48 hrs by SRB assay relative to control
Hs-578T = assay: Cytotoxicity against human Hs578T cells assessed as cellular growth at 10 uM after 48 hrs by SRB assay relative to control
NCI-H23 [12] = assay: Cytotoxicity against human NCI-H23 cells assessed as cellular growth at 0.1 uM after 48 hrs by SRB assay relative to control
M14 [13] = assay: Cytotoxicity against human M14 cells assessed as cellular growth at 100 uM after 48 hrs by SRB assay relative to control
NCI-H322M [14] = assay: Cytotoxicity against human NCI-H322M cells after 48 hrs by SRB assay
SN12C [15] = assay: Cytotoxicity against human SN12C cells assessed as cellular growth at 1 uM after 48 hrs by SRB assay relative to control
SNB-75 = assay: Cytotoxicity against human SNB75 cells assessed as cellular growth at 100 uM after 48 hrs by SRB assay relative to control
NCI-H23 [16] = assay: Cytotoxicity against human NCI-H23 cells after 48 hrs by SRB assay; details: NCI-H23, 48 h
HL-60(TB) = assay: Cytotoxicity against human HL-60(TB) cells assessed as cellular growth at 0.01 uM after 48 hrs by SRB assay relative to control
UACC-257 [17] = assay: Cytotoxicity against human UACC257 cells assessed as cellular growth at 0.01 uM after 48 hrs by SRB assay relative to control
BT-549 = assay: Cytotoxicity against human BT549 cells assessed as cellular growth at 1 uM after 48 hrs by SRB assay relative to control
NCI-H460 = assay: Cytotoxicity against human NCI-H460 cells assessed as cellular growth at 100 uM after 48 hrs by SRB assay relative to control
U-251 = assay: Cytotoxicity against human U251 cells assessed as cellular growth at 0.01 uM after 48 hrs by SRB assay relative to control
MDA-MB-231 = assay: Cytotoxicity against human MDA-MB-231 cells after 48 hrs by SRB assay; details: MDA-MB-231, 48 h
[18] = read-out: LC50 (the source's name)
[19] = read-out: pLC50 (the source's name) (converted)

O=C(CCCn1c2c(sc3ccccc32)c(=O)n2nnc(-c3ccccc3)c12)NCCc1c[nH]cn1
Activity (OVCAR-5): 14% | Activity (UACC-257 [1]): 108% | Activity (TK-10): 121% | GI50 (UACC-62; read-out: GI50): 1.81 µM | CC50 (UACC-62; [18]): 7.01 µM | TGI (UACC-62; read-out: TGI): 3.56 µM | GI50 (UACC-62; read-out: pGI50 (converted)): 1.82 µM | CC50 (UACC-62; [19]): 7.08 µM | TGI (UACC-62; read-out: pTGI (converted)): 3.55 µM | GI50 (T47D; read-out: GI50): 1.27 µM | CC50 (T47D; [18]): 30.6 µM | TGI (T47D; read-out: TGI): 6.37 µM | GI50 (T47D; read-out: pGI50 (converted)): 1.26 µM | CC50 (T47D; [19]): 30.9 µM | TGI (T47D; read-out: pTGI (converted)): 6.31 µM | Activity (786-0): -89% | Activity (SF-268 [2]): -69% | Activity (ACHN): 83% | Activity (SK-MEL-28): -92% | Activity [3]: -24% | Activity (SF-268 [4]): 93% | Activity [5]: 83% | Activity (NCI-H322M [6]): -84% | Activity (NCI-H226): 95% | Activity (M14 [7]): 68% | Activity (SK-OV-3): 84% | Activity (HCT-116): -27% | Activity (DU-145): -100% | Activity (HOP-62): 80% | GI50 (M14 [8]; read-out: GI50): 0.327 µM | TGI (M14 [8]; read-out: TGI): 2.05 µM | GI50 (M14 [8]; read-out: pGI50 (converted)): 0.324 µM | TGI (M14 [8]; read-out: pTGI (converted)): 2.04 µM | Activity (MDA-MB-468): 8% | Activity (M14 [9]): 33% | Activity (SN12C [10]): 50% | Activity (K562): 1% | Activity [11]: 79% | Activity (Hs-578T): -50% | Activity (NCI-H23 [12]): 75% | Activity (M14 [13]): -38% | GI50 (NCI-H322M [14]; read-out: GI50): 2.75 µM | CC50 (NCI-H322M [14]; [18]): 39.2 µM | TGI (NCI-H322M [14]; read-out: TGI): 9.8 µM | GI50 (NCI-H322M [14]; read-out: pGI50 (converted)): 2.75 µM | CC50 (NCI-H322M [14]; [19]): 38.9 µM | TGI (NCI-H322M [14]; read-out: pTGI (converted)): 9.77 µM | Activity (SN12C [15]): 36% | Activity (SNB-75): -96% | GI50 (NCI-H23 [16]; read-out: GI50): 1.34 µM | TGI (NCI-H23 [16]; read-out: TGI): 3.52 µM | GI50 (NCI-H23 [16]; read-out: pGI50 (converted)): 1.35 µM | TGI (NCI-H23 [16]; read-out: pTGI (converted)): 3.55 µM | Activity (HL-60(TB)): 93% | Activity (UACC-257 [17]): 108% | Activity (BT-549): 100% | Activity (NCI-H460): -15% | Activity (U-251): 78% | GI50 (MDA-MB-231; read-out: GI50): 1.88 µM | LC50 (MDA-MB-231; read-out: LC50): 6.54 µM | TGI (MDA-MB-231; read-out: TGI): 3.51 µM | GI50 (MDA-MB-231; read-out: pGI50 (converted)): 1.86 µM | LC50 (MDA-MB-231; read-out: pLC50 (converted)): 6.61 µM | TGI (MDA-MB-231; read-out: pTGI (converted)): 3.47 µM

CN1CCN(CCCn2c3c(sc4ncccc43)c(=O)n3nnc(-c4ccccc4)c23)CC1
Activity (OVCAR-5): 99% | Activity (UACC-257 [1]): 99% | Activity (TK-10): 119% | GI50 (UACC-62; read-out: GI50): 16.6 µM | CC50 (UACC-62; [18]): 71 µM | TGI (UACC-62; read-out: TGI): 34.3 µM | GI50 (UACC-62; read-out: pGI50 (converted)): 16.6 µM | CC50 (UACC-62; [19]): 70.8 µM | TGI (UACC-62; read-out: pTGI (converted)): 34.7 µM | GI50 (T47D; read-out: GI50): 19.7 µM | CC50 (T47D; [18]): 71.6 µM | TGI (T47D; read-out: TGI): 37.6 µM | GI50 (T47D; read-out: pGI50 (converted)): 20 µM | CC50 (T47D; [19]): 70.8 µM | TGI (T47D; read-out: pTGI (converted)): 38 µM | Activity (786-0): -84% | Activity (SF-268 [2]): -86% | Activity (ACHN): 84% | Activity (SK-MEL-28): 87% | Activity [3]: -80% | Activity (SF-268 [4]): 89% | Activity [5]: 92% | Activity (NCI-H322M [6]): -92% | Activity (NCI-H226): 80% | Activity (M14 [7]): 94% | Activity (SK-OV-3): 106% | Activity (HCT-116): 88% | Activity (DU-145): -88% | Activity (HOP-62): 84% | GI50 (M14 [8]; read-out: GI50): 1.87 µM | CC50 (M14 [8]; [18]): 7.16 µM | TGI (M14 [8]; read-out: TGI): 3.66 µM | GI50 (M14 [8]; read-out: pGI50 (converted)): 1.86 µM | CC50 (M14 [8]; [19]): 7.24 µM | TGI (M14 [8]; read-out: pTGI (converted)): 3.63 µM | Activity (MDA-MB-468): 101% | Activity (M14 [9]): 97% | Activity (SN12C [10]): 97% | Activity (K562): 86% | Activity [11]: 95% | Activity (Hs-578T): 69% | Activity (NCI-H23 [12]): 93% | Activity (M14 [13]): -67% | GI50 (NCI-H322M [14]; read-out: GI50): 1.74 µM | CC50 (NCI-H322M [14]; [18]): 6.96 µM | TGI (NCI-H322M [14]; read-out: TGI): 3.48 µM | GI50 (NCI-H322M [14]; read-out: pGI50 (converted)): 1.74 µM | CC50 (NCI-H322M [14]; [19]): 6.92 µM | TGI (NCI-H322M [14]; read-out: pTGI (converted)): 3.47 µM | Activity (SN12C [15]): 87% | Activity (SNB-75): -94% | GI50 (NCI-H23 [16]; read-out: GI50): 2.14 µM | CC50 (NCI-H23 [16]; [18]): 33.7 µM | TGI (NCI-H23 [16]; read-out: TGI): 5.07 µM | GI50 (NCI-H23 [16]; read-out: pGI50 (converted)): 2.14 µM | CC50 (NCI-H23 [16]; [19]): 33.9 µM | TGI (NCI-H23 [16]; read-out: pTGI (converted)): 5.13 µM | Activity (HL-60(TB)): 98% | Activity (UACC-257 [17]): 94% | Activity (BT-549): 97% | Activity (NCI-H460): -72% | Activity (U-251): 97% | GI50 (MDA-MB-231; read-out: GI50): 1.7 µM | TGI (MDA-MB-231; read-out: TGI): 3.51 µM | GI50 (MDA-MB-231; read-out: pGI50 (converted)): 1.7 µM | TGI (MDA-MB-231; read-out: pTGI (converted)): 3.55 µM
